This is an account of results in patent US11466326B2, “Methods and kit for diagnosing and treating colorectal cancer based on AvrA and Wnt1” (The Board of Trustees of the University of Illinois, priority 2018, dated 2022).

Peptide text beside a SMILES is read from it. * marks the point of attachment. Cbz = O=C(OCc1ccccc1)*

In assay [1] the test system is Wnt1 protein. The assay is described as follows: Wnt1 protein level after Salmonella infection in the presence of a proteasome inhibitor. In kind it is cell-based, human. The note with it: in the presence of MG132; compared with control cells without treatment. Here is the method:
(§1) Western Blot Analysis of Cell Line Proteins. Infected or control cells were rinsed twice in ice-cold HESS and lysed in protein loading buffer (50 mM Tris, pH 6.8, 100 mM dithiothreitol, 2% SDS, 0.1% bromophenol blue, and 10% glycerol). Equal amounts of protein were separated by SDS-polyacrylamide gel electrophoresis, transferred to nitrocellulose membranes, and analyzed by immunoblotting with anti-Wnt1 and anti-β-actin antibodies (Bioworld). The signals were visualized and quantitated using LI-COR Odyssey v3.0 software after probing the membranes with an infrared-conjugated secondary antibody.

The test system of assay [2] is Wnt1 protein. Nature of the assay: Wnt1 protein level by immunoblot after LPS treatment of human epithelial cells. In kind it is cell-based. The note with it: cells treated with LPS, total cell lysates. Here is the method: as §1
A general note: Immunoblotting shows a protein as a band on a membrane.

Turning to `CC(C)C[C@@H](C=O)NC(=O)[C@H](CC(C)C)NC(=O)[C@H](CC(C)C)NC(=O)OCc1ccccc1` [MG132] (Cbz-Leu-Leu-Leu-aldehyde), the “Wnt1 protein levels after Salmonella infection” value with Wnt1 protein [1] was “stabilized”. Consider lipopolysaccharide [LPS], for which, in the assay with Wnt1 protein [2], the “change in Wnt1 expression (decrease as seen with Salmonella)” value is recorded as “not observed”.
